Reference: patent publication US20090068210A1, “IMMUNOTHERAPY FOR HEMATOLOGICAL MALIGNANCIES” (priority 2007, published 2009)

Legend:
[1] = cited from earlier work; for Interconversion in solvent systems: interconversion studies; for Hygroscopicity: polymorphic form
[2] = system: iNKT cells; experiment: Cytokine production (ELISA) by iNKT cells co-cultured with antigen presenting cells (MM1S.CD1d cells or DCs), with or without α-GalCer; assay type: cell-based, human
Procedure: 1×10^5 NKT cells from MM patients were plated in a 96-well plate with MM1S.CD1d cells or DCs at ratios of 2:1 and 4:1, respectively, with or without pre-loaded α-GalCer (100 ng/ml). 1-Oxo-2-(2,6-dioxopiperidin-3-yl)-4-aminoisoindoline (2 μM) was used as indicated, with DMSO as control. The supernatant was collected at 48 and 72 hours and the levels of IFN-γ, IL-2 and IL-4 were determined by ELISA (R&D Systems, Minneapolis, Minn.).

[3] = system: iNKT cells; experiment: as above; assay type: cell-based, human; remark: listed apart in the source
[4] = iNKT cells + MM1S.CD1d cells in the absence of α-GalCer, compound 2 μM, ELISA
[5] = iNKT cells + α-GalCer-loaded MM1S.CD1d cells, compound 2 μM vs controls (DMSO), ELISA

## Nc1cccc2c1CN(C1CCC(=O)NC1=O)C2=O (stereo not shown) [Form E, 3-(4-amino-1-oxo-1,3 dihydro-isoindol-2-yl)-piperidene-2,6-dione]
[1]; about 125° C. for about five minutes
  Conversion upon heating (desolvation): can convert to Form B
[1]
  Interconversion in solvent systems: can convert to Form C in an acetone solvent system and to Form G in a THF solvent system

## Nc1cccc2c1CN(C1CCC(=O)NC1=O)C2=O (stereo not shown) [Form D, 3-(4-amino-1-oxo-1,3 dihydro-isoindol-2-yl)-piperidene-2,6-dione]
[1]
  Hygroscopicity: either weakly or not hygroscopic

## Nc1cccc2c1CN(C1CCC(=O)NC1=O)C2=O (stereo not shown) [Form B, 3-(4-amino-1-oxo-1,3 dihydro-isoindol-2-yl)-piperidene-2,6-dione]
[1]; 175° C. for about five minutes
  Conversion upon heating: can convert to Form F
[1]
  Interconversion in solvent systems: converts to Form E in aqueous solvent systems

## Nc1cccc2c1CN(C1CCC(=O)NC1=O)C2=O (stereo not shown) [Form A, 3-(4-amino-1-oxo-1,3 dihydro-isoindol-2-yl)-piperidene-2,6-dione]
[1]; Form A: anhydrous polymorphs, Form E: aqueous solvent systems
  Relative stability among polymorphs: most thermodynamically stable anhydrous polymorph
[1]
  Hygroscopicity: weakly or not hygroscopic

## Nc1cccc2c1CN(C1CCC(=O)NC1=O)C2=O (stereo not shown) [Form C, 3-(4-amino-1-oxo-1,3 dihydro-isoindol-2-yl)-piperidene-2,6-dione]
[1]
  Hygroscopicity: not hygroscopic below about 85% RH

## Nc1cccc2c1CN(C1CCC(=O)NC1=O)C2=O (stereo not shown) [1-oxo-2-(2,6-dioxopiperidin-3-yl)-4-aminoisoindoline]
[2]; iNKT cells + CD1d expressing multiple myeloma cells without α-GalCer, compound vs cells alone
  IL-4 level: decrease
[2]; [4]
  IFN-γ production: increase
  IL-2 production: increase
[2]; [5]
  IFN-γ level: significant increase
  IL-2 level: significant increase
  IL-4 level: decrease
[3]; CD1d-transfected C1R cells as antigen presenting cells
  Increase in IFN-γ and IL-2 levels and decrease in IL-4 level: confirmed
[3]; iNKT cells alone or co-cultured with mock MM.1S cells, with or without α-GalCer
  Direct stimulation of iNKT cells: did not directly stimulate
